Laboratory results published in patent US10988445B2 (AstraZeneca AB, priority 2015, dated 2021).

Test system: human TH17 cells
Test: Inhibition of IL-17 release from human TH17 cells
Type: cell-based
Conditions: Homo sapiens, 96 h, isolated human TH17 cells, 4 days culture, IL-17A by HTRF; read-out: pIC50 IL-17 release (converted)
Procedure, shortened: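 TH17 cells (CD4+CXCR3-CCR6+) enriched from healthy-donor PBMC isolated from heparinized whole blood. Supernatants collected on day 4; IL-17A quantified by HTRF.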

Row | SMILES | IC50 [nM]
1 | COCC(=O)N1Cc2cc(S(=O)(=O)C3CC3)ccc2C1C(=O)Nc1ccc(C(O)(C(F)(F)F)C(F)(F)F)cc1 (stereo not drawn) [Example 606, 5-(Cyclopropylsulfonyl)-N-[4-(1,1,1,3,3,3-hexafluoro-2-hydroxypropan-2-yl)phenyl]-2-(methoxyacetyl)-2,3-dihydro-1H-isoindole-1-carboxamide] | 31.6
2 | N#CC1(C(=O)N2Cc3cc(S(=O)(=O)C4CC4)ccc3C2C(=O)Nc2ccc(C(O)(C(F)(F)F)C(F)(F)F)cc2)CC1 (stereo not drawn) [Example 607, 2-[(1-Cyanocyclopropyl)carbonyl]-5-(cyclopropylsulfonyl)-N-[4-(1,1,1,3,3,3-hexafluoro-2-hydroxypropan-2-yl)phenyl]-2,3-dihydro-1H-isoindole-1-carboxamide] | 39.8
3 | O=C(Nc1ccc(C(O)(C(F)(F)F)C(F)(F)F)cc1)C1c2ccc(S(=O)(=O)C3CC3)cc2CN1C(=O)[C@@H]1CCCO1 (stereo partly drawn) [Example 608, 5-(Cyclopropylsulfonyl)-N-[4-(1,1,1,3,3,3-hexafluoro-2-hydroxypropan-2-yl)phenyl]-2-[(2S)-tetrahydrofuran-2-ylcarbonyl]-2,3-dihydro-1H-isoindole-1-carboxamide] | 39.8
4 | O=C(Nc1ccc(C(O)(C(F)(F)F)C(F)(F)F)cc1)C1c2ccc(S(=O)(=O)C3CC3)cc2CN1C(=O)[C@H]1CCCO1 (stereo partly drawn) [Example 609, 5-(Cyclopropylsulfonyl)-N-[4-(1,1,1,3,3,3-hexafluoro-2-hydroxypropan-2-yl)phenyl]-2-[(2R)-tetrahydrofuran-2-ylcarbonyl]-2,3-dihydro-1H-isoindole-1-carboxamide] | 50.1
5 | CNC(=O)N1Cc2cc(S(=O)(=O)C3CC3)ccc2C1C(=O)Nc1ccc(C(O)(C(F)(F)F)C(F)(F)F)cc1 (stereo not drawn) [Example 610] | 63.1
6 | COCCS(=O)(=O)c1ccc2c(c1)CNC2C(=O)Nc1ccc(C(O)(C(F)(F)F)C(F)(F)F)cc1 (stereo not drawn) [Example 700, N-(4-(1,1,1,3,3,3-hexafluoro-2-hydroxypropan-2-yl)phenyl)-5-((2-methoxyethyl)sulfonyl)isoindoline-1-carboxamide] | 100
7 | COCCS(=O)(=O)c1ccc2c(c1)CN(C=O)C2C(=O)Nc1ccc(C(O)(C(F)(F)F)C(F)(F)F)cc1 (stereo not drawn) [Example 701, 2-Formyl-N-[4-(1,1,1,3,3,3-hexafluoro-2-hydroxypropan-2-yl)phenyl]-5-[(2-methoxyethyl)sulfonyl]-2,3-dihydro-1H-isoindole-1-carboxamide] | 15.8
8 | COCCS(=O)(=O)c1ccc2c(c1)CN(C(=O)C1(OC)CC1)C2C(=O)Nc1ccc(C(O)(C(F)(F)F)C(F)(F)F)cc1 (stereo not drawn) [Example 703, N-[4-(1,1,1,3,3,3-hexafluoro-2-hydroxypropan-2-yl)phenyl]-2-[(1-methoxycyclopropyl)carbonyl]-5-[(2-methoxyethyl)sulfonyl]-2,3-dihydro-1H-isoindole-1-carboxamide] | 25.1
9 | COCCS(=O)(=O)c1ccc2c(c1)CN(C(=O)OC)C2C(=O)Nc1ccc(C(O)(C(F)(F)F)C(F)(F)F)cc1 (stereo not drawn) [Example 704, Methyl 1-{[4-(1,1,1,3,3,3-hexafluoro-2-hydroxypropan-2-yl)phenyl]carbamoyl}-5-[(2-methoxyethyl)sulfonyl]-1,3-dihydro-2H-isoindole-2-carboxylate] | 25.1
10 | COCCS(=O)(=O)c1ccc2c(c1)CN(C(=O)CO)C2C(=O)Nc1ccc(C(O)(C(F)(F)F)C(F)(F)F)cc1 (stereo not drawn) [Example 705, N-[4-(1,1,1,3,3,3-Hexafluoro-2-hydroxypropan-2-yl)phenyl]-2-(hydroxyacetyl)-5-[(2-methoxyethyl)sulfonyl]-2,3-dihydro-1H-isoindole-1-carboxamide] | 100
11 | COCCS(=O)(=O)c1ccc2c(c1)CN(C(=O)COC)C2C(=O)Nc1ccc(C(O)(C(F)(F)F)C(F)(F)F)cc1 (stereo not drawn) [Example 706, N-[4-(1,1,1,3,3,3-Hexafluoro-2-hydroxypropan-2-yl)phenyl]-2-(methoxyacetyl)-5-[(2-methoxyethyl)sulfonyl]-2,3-dihydro-1H-isoindole-1-carboxamide] | 50.1
12 | CNC(=O)N1Cc2cc(S(=O)(=O)CCOC)ccc2C1C(=O)Nc1ccc(C(O)(C(F)(F)F)C(F)(F)F)cc1 (stereo not drawn) [Example 707] | 50.1
13 | COC1(C(=O)N2Cc3cc(S(=O)(=O)CCO)ccc3C2C(=O)Nc2ccc(C(O)(C(F)(F)F)C(F)(F)F)cc2)CC1 (stereo not drawn) [Example 802, N-[4-(1,1,1,3,3,3-Hexafluoro-2-hydroxypropan-2-yl)phenyl]-5-[(2-hydroxyethyl)sulfonyl]-2-[(1-methoxycyclopropyl)carbonyl]-2,3-dihydro-1H-isoindole-1-carboxamide] | 79.4
14 | COC(=O)N1Cc2cc(S(=O)(=O)CC3(C#N)CC3)ccc2C1C(=O)Nc1ccc(C(O)(C(F)(F)F)C(F)(F)F)cc1 (stereo not drawn) [Example 902, Methyl 5-{[(1-cyanocyclopropyl)methyl]sulfonyl}-1-{[4-(1,1,1,3,3,3-hexafluoro-2-hydroxypropan-2-yl)phenyl]carbamoyl}-1,3-dihydro-2H-isoindole-2-carboxylate] | 50.1
15 | CC(=O)N1Cc2cc(S(=O)(=O)CC(C)C)ccc2C1C(=O)Nc1ccc(C(O)(C(F)(F)F)C(F)(F)F)cc1 (stereo not drawn) [Example 1001, 2-Acetyl-N-[4-(1,1,1,3,3,3-hexafluoro-2-hydroxypropan-2-yl)phenyl]-5-[(2-methylpropyl)sulfonyl]-2,3-dihydro-1H-isoindole-1-carboxamide] | 100
16 | O=C(Nc1ccc(C(O)(C(F)(F)F)C(F)(F)F)cc1)C1NCc2cc(S(=O)(=O)CC3(O)CC3)ccc21 (stereo not drawn) [Example 1100, N-[4-(1,1,1,3,3,3-Hexafluoro-2-hydroxypropan-2-yl)phenyl]-5-{[(1-hydroxycyclopropyl)methyl]sulfonyl}-2,3-dihydro-1H-isoindole-1-carboxamide] | 200
17 | CC(=O)N1Cc2cc(S(=O)(=O)CC3(O)CC3)ccc2C1C(=O)Nc1ccc(C(O)(C(F)(F)F)C(F)(F)F)cc1 (stereo not drawn) [Example 1101, 2-Acetyl-N-[4-(1,1,1,3,3,3-hexafluoro-2-hydroxypropan-2-yl)phenyl]-5-{[(1-hydroxycyclopropyl)methyl]sulfonyl}-2,3-dihydro-1H-isoindole-1-carboxamide] | 63.1
18 | O=CN1Cc2cc(S(=O)(=O)CC3(O)CC3)ccc2C1C(=O)Nc1ccc(C(O)(C(F)(F)F)C(F)(F)F)cc1 (stereo not drawn) [Example 1102, 2-Formyl-N-[4-(1,1,1,3,3,3-hexafluoro-2-hydroxypropan-2-yl)phenyl]-5-{[(1-hydroxycyclopropyl)methyl]sulfonyl}-2,3-dihydro-1H-isoindole-1-carboxamide] | 31.6
19 | O=C(Nc1ccc(C(O)(C(F)(F)F)C(F)(F)F)cc1)C1c2ccc(S(=O)(=O)CC3(O)CC3)cc2CN1C(=O)CO (stereo not drawn) [Example 1103, N-[4-(1,1,1,3,3,3-Hexafluoro-2-hydroxypropan-2-yl)phenyl]-2-(hydroxyacetyl)-5-{[(1-hydroxycyclopropyl)methyl]sulfonyl}-2,3-dihydro-1H-isoindole-1-carboxamide] | 501
20 | CC(=O)N1Cc2cc(S(=O)(=O)CC(C)O)ccc2C1C(=O)Nc1ccc(C(O)(C(F)(F)F)C(F)(F)F)cc1 (stereo not drawn) [Example 1200, 2-Acetyl-N-[4-(1,1,1,3,3,3-hexafluoro-2-hydroxypropan-2-yl)phenyl]-5-[(2-hydroxypropyl)sulfonyl]-2,3-dihydro-1H-isoindole-1-carboxamide] | 158
21 | O=C(Nc1ccc(C(O)(C(F)(F)F)C(F)(F)F)cc1)C1NCc2cc(S(=O)(=O)CC3(F)CC3)ccc21 (stereo not drawn) [Example 1300, 5-{[(1-Fluorocyclopropyl)methyl]sulfonyl}-N-[4-(1,1,1,3,3,3-hexafluoro-2-hydroxypropan-2-yl)phenyl]-2,3-dihydro-1H-isoindole-1-carboxamide] | 251
